Tests used:
B16 = assay: In vitro effect on B16 melanoma cytotoxicity relative to that of Taxol, expressed as ED50/ED50 (Taxol=1); type: functional, Mus musculus
[1] = In vitro effect on microtubule assembly relative to that of Taxol, expressed as ED50/ED50 (Taxol=1); type: functional

SMILES	ED50 ratio (B16)	ED50 ratio [1]
CC(=O)O[C@H]1C(=O)[C@@]2(C)[C@H]([C@H](OC(=O)c3ccccc3)[C@]3(O)C[C@H](OC(=O)[C@H](O)[C@@H](NC(=O)c4cccc(N(C)C)c4)c4ccccc4)C(C)=C1C3(C)C)[C@]1(OC(C)=O)CO[C@@H]1C[C@@H]2O	1.6	1.4
CC(=O)O[C@H]1C(=O)[C@@]2(C)[C@H]([C@H](OC(=O)c3ccccc3)[C@]3(O)C[C@H](OC(=O)[C@H](O)[C@@H](N)c4ccccc4)C(C)=C1C3(C)C)[C@]1(OC(C)=O)CO[C@@H]1C[C@@H]2O	–	21
CC(=O)O[C@H]1C(=O)[C@@]2(C)[C@H]([C@H](OC(=O)c3ccccc3)[C@]3(O)C[C@H](OC(=O)[C@H](O)[C@@H](NC(=O)c4ccccc4C)c4ccccc4)C(C)=C1C3(C)C)[C@]1(OC(C)=O)CO[C@@H]1C[C@@H]2O	7.5	1.9
CC(=O)O[C@H]1C(=O)[C@@]2(C)[C@H]([C@H](OC(=O)c3ccccc3)[C@]3(O)C[C@H](OC(=O)[C@H](O)[C@@H](NC(=O)c4ccc(Cl)cc4)c4ccccc4)C(C)=C1C3(C)C)[C@]1(OC(C)=O)CO[C@@H]1C[C@@H]2O	1.5	2.4
CC(=O)O[C@H]1C(=O)[C@@]2(C)[C@H]([C@H](OC(=O)c3ccccc3)[C@]3(O)C[C@H](OC(=O)[C@H](O)[C@@H](NC(=O)c4ccc(C)cc4)c4ccccc4)C(C)=C1C3(C)C)[C@]1(OC(C)=O)CO[C@@H]1C[C@@H]2O	1.4	1.6
COc1ccc(C(=O)N[C@@H](c2ccccc2)[C@@H](O)C(=O)O[C@H]2C[C@@]3(O)[C@@H](OC(=O)c4ccccc4)[C@@H]4[C@]5(OC(C)=O)CO[C@@H]5C[C@H](O)[C@@]4(C)C(=O)[C@H](OC(C)=O)C(=C2C)C3(C)C)cc1	1.3	0.6
CC(=O)O[C@H]1C(=O)[C@@]2(C)[C@H]([C@H](OC(=O)c3ccccc3)[C@]3(O)C[C@H](OC(=O)[C@H](O)[C@@H](NC(=O)c4ccc(F)cc4)c4ccccc4)C(C)=C1C3(C)C)[C@]1(OC(C)=O)CO[C@@H]1C[C@@H]2O	4.3	1.2
CC(=O)O[C@H]1C(=O)[C@@]2(C)[C@H]([C@H](OC(=O)c3ccccc3)[C@]3(O)C[C@H](OC(=O)[C@H](O)[C@@H](NC(=O)c4ccc([N+](=O)[O-])cc4)c4ccccc4)C(C)=C1C3(C)C)[C@]1(OC(C)=O)CO[C@@H]1C[C@@H]2O	20.7	2
CC(=O)O[C@H]1C(=O)[C@@]2(C)[C@H]([C@H](OC(=O)c3ccccc3)[C@]3(O)C[C@H](OC(=O)[C@H](O)[C@@H](NC(=O)c4cccc(Cl)c4)c4ccccc4)C(C)=C1C3(C)C)[C@]1(OC(C)=O)CO[C@@H]1C[C@@H]2O	1.8	2
CC(=O)O[C@H]1C(=O)[C@@]2(C)[C@H]([C@H](OC(=O)c3ccccc3)[C@]3(O)C[C@H](OC(=O)[C@H](O)[C@@H](NC(=O)c4ccccc4)c4ccccc4)C(C)=C1C3(C)C)[C@]1(OC(C)=O)CO[C@@H]1C[C@@H]2O [PACLITAXEL]	1	1
CC(=O)O[C@H]1C(=O)[C@@]2(C)[C@H]([C@H](OC(=O)c3ccccc3)[C@]3(O)C[C@H](OC(=O)[C@H](O)[C@@H](NC(=O)c4ccc(Cl)c(Cl)c4)c4ccccc4)C(C)=C1C3(C)C)[C@]1(OC(C)=O)CO[C@@H]1C[C@@H]2O	10.6	2.1

Reference: ChEMBL document CHEMBL1150492, “Topliss approach to the synthesis of biologically active substituted N-benzoyl taxol analogues” (1994)
